# Reference: patent US9006487B2, “Amine-containing lipids and uses thereof” (Massachusetts Institute of Technology, priority 2005, dated 2015)
# What was measured:
# Assay type in all cases: cell-based
# cos-7 cells = test: DNA transfection: luciferase expression relative to Lipofectamine 2000; details: for Luciferase expression as a percentage of that achieved using Lipofectamine 2000: 300 ng Luciferase DNA per well; for Luciferase expression as a percentage of that achieved using Lipofectamine 2000 / % of the luciferase activity obtained from the use of Lipofectamine 2000: luciferase assay after 48 hours; for luciferase expression (second part of table, values relative to LIPO2000): 300 ng of DNA per well; for % of the luciferase activity obtained from the use of Lipofectamine 2000: 300 ng DNA per well
# Summary of the method: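 Lipid/DNA complexes, 300 ng luciferase DNA per well at 2.5-25 w/w lipid:DNA, were formed in sodium acetate/Optimem and added to overnight-seeded cos-7 cells. Luciferase was measured by Bright-Glo luminescence after 48 hours and quantified against an enzyme standard curve. Values are expressed as % of Lipofectamine 2000 at 2.5 w/w.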
# [1] = test system: renilla and firefly luciferases; test: siRNA delivery: reporter-protein (renilla luciferase) knockdown relative to Lipofectamine 2000, firefly luciferase as viability control; details: 50 ng of siRNA per well
# Description: Reporter-protein knockdown achieved by the top transfecting lipids relative to Lipofectamine™ 2000 (where negative values indicate improved knockdown). The assay accounts for toxicity, monitoring expression of both renilla and firefly luciferases, where the latter serves as viability control. For each lipid, 50 ng of siRNA was added per well at specific lipid/RNA w/w ratios (from top to bottom: 2.5, 5, 10, 15).
# [2] = DNA delivery: raw luciferase expression (relative light units) of best-transfecting lipids; details: 300 ng of DNA per well
# Description: Raw values for luciferase expression (relative lights units) of best-transfecting lipids at lipid/DNA (w/w) ratios listed. 300 ng of DNA was added per well.
# [3] = 1st column, no head printed (2.5 w/w by the raw values)
# [4] = 2nd column, no head printed (5 w/w by the raw values)
# [5] = 3rd column, no head printed (10 w/w by the raw values)
# [6] = 4th column, no head printed (15 w/w by the raw values)
SMILES,Luciferase expression as a percentage of that achieved using Lipofectamine 2000 (cos-7 cells; lipid/DNA 2.5 w/w),"luciferase expression (second part of table, values relative to LIPO2000) (cos-7 cells; lipid/DNA 2.5 w/w)",Luciferase expression as a percentage of that achieved using Lipofectamine 2000 (cos-7 cells; lipid/DNA 5 w/w),"luciferase expression (second part of table, values relative to LIPO2000) (cos-7 cells; lipid/DNA 5 w/w)",Luciferase expression as a percentage of that achieved using Lipofectamine 2000 (cos-7 cells; lipid/DNA 10 w/w),"luciferase expression (second part of table, values relative to LIPO2000) (cos-7 cells; lipid/DNA 10 w/w)",Luciferase expression as a percentage of that achieved using Lipofectamine 2000 (cos-7 cells; lipid/DNA 15 w/w),"luciferase expression (second part of table, values relative to LIPO2000) (cos-7 cells; lipid/DNA 15 w/w)",Luciferase expression as a percentage of that achieved using Lipofectamine 2000 (cos-7 cells; lipid/DNA 20 w/w),"luciferase expression (second part of table, values relative to LIPO2000) (cos-7 cells; lipid/DNA 20 w/w)",Luciferase expression as a percentage of that achieved using Lipofectamine 2000 (cos-7 cells; lipid/DNA 25 w/w),"luciferase expression (second part of table, values relative to LIPO2000) (cos-7 cells; lipid/DNA 25 w/w)",Reporter-protein knockdown relative to Lipofectamine 2000 (negative values indicate improved knockdown) ([1]; lipid/RNA 2.5 w/w),Reporter-protein knockdown relative to Lipofectamine 2000 (negative values indicate improved knockdown) ([1]; lipid/RNA 5 w/w),Reporter-protein knockdown relative to Lipofectamine 2000 (negative values indicate improved knockdown) ([1]; lipid/RNA 10 w/w),Reporter-protein knockdown relative to Lipofectamine 2000 (negative values indicate improved knockdown) ([1]; lipid/RNA 15 w/w),"luciferase expression, second set of columns (replicate set of data) (cos-7 cells; [3])","luciferase expression, second set of columns (replicate set of data) (cos-7 cells; [4])","luciferase expression, second set of columns (replicate set of data) (cos-7 cells; [5])","luciferase expression, second set of columns (replicate set of data) (cos-7 cells; [6])",other results
CCCCCCCCCCCCOC(=O)CCN(CCOCCO)CCC(=O)OCCCCCCCCCCCC [LD31],44.2%,44.2,38.7%,38.7,18.8%,18.8,11.3%,11.3,42.8%,42.8,174.1%,174.1,15.3558,−7.897,−15.5821,−16.8831,–,–,–,–,–
CCCCCCCCCCCCCOC(=O)CCN(CCCN(CCO)CCO)CCC(=O)OCCCCCCCCCCCCC [LE87],–,–,–,–,–,–,–,–,–,–,–,–,5.504,−6.923,−8.533,−15.2929,–,–,–,–,% of the luciferase activity obtained from the use of Lipofectamine 2000 (cos-7 cells; 2.5 w/w lipid to DNA): 10.5%; % of the luciferase activity obtained from the use of Lipofectamine 2000 (cos-7 cells; 5 w/w lipid to DNA): 9.0%; % of the luciferase activity obtained from the use of Lipofectamine 2000 (cos-7 cells; 10 w/w lipid to DNA): 38.4%; % of the luciferase activity obtained from the use of Lipofectamine 2000 (cos-7 cells; 15 w/w lipid to DNA): 4.3%; % of the luciferase activity obtained from the use of Lipofectamine 2000 (cos-7 cells; 20 w/w lipid to DNA): 0.0%; % of the luciferase activity obtained from the use of Lipofectamine 2000 (cos-7 cells; 25 w/w lipid to DNA): 0.0%
CCCCCCCCCCCCCCOC(=O)CCN(CCOCCO)CCC(=O)OCCCCCCCCCCCCCC [LF31],64.1%,64.1,78.7%,78.7,13.4%,13.4,69.5%,69.5,97.3%,97.3,266.8%,266.8,50.09,11.94,−0.8252,−10.5366,–,–,–,–,–
CCCCCCCCCCCCCCCOC(=O)CCN(CCOCCO)CCC(=O)OCCCCCCCCCCCCCCC [LG31],19.6%,19.6,27.6%,27.6,34.0%,34.0,8.5%,8.5,14.3%,14.3,94.0%,94.0,41,21.06,−2.714,−5.764,–,–,–,–,–
CCCCCCCCCCCCCCNC(=O)CCN(CCCN(CCC(=O)NCCCCCCCCCCCCCC)CCC(=O)NCCCCCCCCCCCCCC)CCC(=O)NCCCCCCCCCCCCCC [NF100],–,75.9,–,0.5,–,0.0,–,0.0,–,–,–,–,–,–,–,–,–,–,–,–,Raw values for luciferase expression ([2]; lipid/DNA 2.5 w/w): 1061441 relative lights units; Raw values for luciferase expression ([2]; lipid/DNA 5 w/w): 8015 relative lights units
CCCCCCCCCCCCCCNC(=O)CCN(CCO)CCN(CCO)CCC(=O)NCCCCCCCCCCCCCC [NF103],–,183.1,–,23.6,–,0.0,–,0.0,–,–,–,–,–,–,–,–,66.2,51.3,0.6,0.0,Raw values for luciferase expression ([2]; lipid/DNA 10 w/w): 2886271 relative lights units; Raw values for luciferase expression ([2]; lipid/DNA 15 w/w): 772518 relative lights units
CCCCCCCCCCCCCCNC(=O)CCN(CCO)CCN(CCC(=O)NCCCCCCCCCCCCCC)CCC(=O)NCCCCCCCCCCCCCC [NF109],–,205.2,–,46.2,–,1.7,–,0.0,–,–,–,–,–,–,–,–,74.5,22.5,3.9,1.6,Raw values for luciferase expression ([2]; lipid/DNA 10 w/w): 1151621 relative lights units; Raw values for luciferase expression ([2]; lipid/DNA 15 w/w): 108854 relative lights units
CCCCCCCCCCCCCCCCNC(=O)CCN(CCO)CCN(CCO)CCC(=O)NCCCCCCCCCCCCCCCC [NP103],–,83.0,–,2.8,–,0.0,–,1.5,–,–,–,–,–,–,–,–,2.1,2.3,3.8,1.4,Raw values for luciferase expression ([2]; lipid/DNA 2.5 w/w): 8798627 relative lights units; Raw values for luciferase expression ([2]; lipid/DNA 5 w/w): 308844 relative lights units
